Experimental data reported in patent US8580839B2, “Photosensitizer formulations and their use” (Biolitec Pharma Marketing Ltd, priority 2005, dated 2013).

Experiment: Fluorescence detection of m-THPC tissue accumulation in patients after intravenous injection
Type: in vivo
Conditions: for fluorescence found/# patients tested: 0.05 mg/kg
Procedure: Comparison of tissue accumulation of m-THPC in patients after administration of the standard m-THPC formulation (“m-THPC”) and a low concentration formulation with low dosage of m-THPC (“m-THPC-dl”).
In this example, the two formulations were studied and compared to show m-THPC uptake in patient tissue after administration. The standard formulation (“m-THPC”) contained the standard concentration of m-THPC for photodynamic therapy, which is 4 mg/ml. The second formulation (“m-THPC-dl”) is a low concentration formulation containing 0.8 mg/ml of m-THPC. Each formulation was prepared with a mixture of pure propylene glycol and pure ethanol (3:2, v/v) as the excipient. Each patient received a reduced dosage of 0.05 mg of m-THPC per kg of body weight.
After administration of the two different formulations, the fluorescence accumulation in patients was monitored and the large difference in the pharmacokinetics between the m-THPC and m-THPC-dl formulations was found.
Comparison of tissue accumulation of m-THPC in patients after administration of the standard m-THPC formulation (“m-THPC”) and a low concentration formulation when m-THPC is diluted with aqueous lipid containing solubilizing preparation Lipofundin®.
In this example, the two formulations were studied and compared to show m-THPC uptake in patient tissue after administration with […]. The standard formulation (“m-THPC”) contained the standard concentration of m-THPC for photodynamic therapy is 4 mg/ml. The second formulation (“m-THPC-Lipo”) is a low concentration formulation containing 0.08 mg/ml of m-THPC (dilution for 50 times, from standard level). It was prepared by the dilution of standard m-THPC solution with the concentration of 4 mg/ml by aqueous lipid containing solubilizing preparation. Lipofundin® MCT (10%, B. Braun Melsungen AG, Melsungen, Germany). Each patient received intravenously the low dosage of 0.05 mg of m-THPC per kg of body weight.
After administration of the two different formulations, the fluorescence accumulation in patients was monitored and a no difference in the pharmacokinetics between the m-THPC and m-THPC-Lipo formulations was found.

patients with measurable fluorescence in the tumors (1 hour after drug injection): not detected in any patients
patients with strong fluorescence in the tumors (3 hours after injection): about 30%
fluorescence found/# patients tested (Intact skin, 15 min after injection): 0/11
fluorescence found/# patients tested (Intact skin, 1 hour after injection): 0/11
fluorescence found/# patients tested (Intact skin, 3 hours after injection): 2/11
fluorescence found/# patients tested (Intact skin, 1 day after injection): 8/11
fluorescence found/# patients tested (Intact skin, 2 days after injection): 9/11
fluorescence found/# patients tested (Perifocal skin, 15 min after injection): 0/11
fluorescence found/# patients tested (Perifocal skin, 1 hour after injection): 0/11
fluorescence found/# patients tested (Perifocal skin, 3 hours after injection): 2/11
fluorescence found/# patients tested (Perifocal skin, 1 day after injection): 10/11
fluorescence found/# patients tested (Perifocal skin, 2 days after injection): All
fluorescence found/# patients tested (Tumor, 15 min after injection): 0/11
fluorescence found/# patients tested (Tumor, 1 hour after injection): 0/11
fluorescence found/# patients tested (Tumor, 3 hours after injection): 4/11
fluorescence found/# patients tested (Tumor, 1 day after injection): All
fluorescence found/# patients tested (Tumor, 2 days after injection): All
SMILES: Oc1cccc(-c2c3nc(c(-c4cccc(O)c4)c4ccc([nH]4)c(-c4cccc(O)c4)c4nc(c(-c5cccc(O)c5)c5ccc2[nH]5)CC4)C=C3)c1 [m-THPC, Meta-tetra(hydroxyphenyl)chlorin]
fluorescence in perifocal and intact skin (2 days post-injection): there were patients where fluorescence in perifocal and intact skin was not observed
